According to US12595239B2, “Substituted isoxazoline derivatives” (BASF SE, priority 2021, dated 2026):

How the values were obtained:
Format in all cases: in vivo
Plutella xylostella = experiment: B.6 Diamond Back Moth, cabbage leaf disc dip test; settings: foliar, 3rd instar larvae, 72 hours after treatment, read-out: mortality in comparison with untreated controls
Protocol: The active compound was dissolved at the desired concentration in a mixture of 1:1 (vol:vol) distilled water:acetone. Surfactant (Kinetic) was added at a rate of 0.01% (vol/vol). The test solution was prepared at the day of use. Cabbage leaf discs (60 mm in diameter) were dipped in test solution and air-dried. Treated leaves were placed in petri dishes lined with moistened filter paper and inoculated with ten 3rd instar larvae. Mortality was recorded 72 hours after treatment. Feeding damages were also recorded using a scale of 0-100%.

Dichromothrips corbetti = experiment: B.7 Orchid Thrips, floral-immersion test; settings: adult thrips, 72 hours after treatment, read-out: mortality in comparison with untreated controls
Protocol: Dichromothrips corbetti adults used for bioassay were obtained from a colony maintained continuously under laboratory conditions. For testing purposes, the test compound was diluted in a 1:1 mixture of acetone:water (vol:vol), plus Kinetic at a rate of 0.01% v/v.
Thrips potency of each compound was evaluated by using a floral-immersion technique. Each orchid petal was dipped into treatment solution and allowed to dry in Petri dishes. Treated petals were placed into individual re-sealable plastic along with about 20 adult thrips. All test arenas were held under dark condition and a temperature of about 28° C. for duration of the assay. The percent mortality was recorded 72 hours after treatment.

Anthonomus grandis = experiment: B.1 Boll weevil (Anthonomus grandis), 96-well microtiter plate diet test; settings: 120 h, egg and larval mortality, 5 days, read-out: mortality in comparison with untreated controls
Protocol: For evaluating control of boll weevil, the test unit consisted of 96-well-microtiter plates containing an insect diet and 5-10 A. grandis eggs.
The compounds were formulated using a solution containing 75% v/v water and 25% v/v DMSO. Different concentrations of formulated compounds were sprayed onto the insect diet at 5 μl, using a custom-built micro atomizer, at two replications.
After application, microtiter plates were incubated at about 25±1° C. and about 75±5% relative humidity for 5 days. Egg and larval mortality were then visually assessed.

Spodoptera eridania = experiment: B.11 Southern Armyworm 2nd instar larvae, lima bean foliar spray test; settings: 96 h, 4 days after treatment, read-out: mortality in comparison with untreated controls
Protocol: The active compounds were formulated by a Tecan liquid handler in 100% cyclohexanone as a 10′000 ppm solution supplied in tubes. The 10′000 ppm solution was serially diluted in 100% cyclohexanone to make interim solutions. These served as stock solutions for which final dilutions were made by the Tecan in 50% acetone:50% water (v/v) into 10 or 20 ml glass vials. A nonionic surfactant (Kinetic®) was included in the solution at a volume of 0.01% (v/v). The vials were then inserted into an automated electrostatic sprayer equipped with an atomizing nozzle for application to plants/insects. Lima bean plants (variety Sieva) were grown 2 plants to a pot and selected for treatment at the 1st true leaf stage. Test solutions were sprayed onto the foliage by an automated electrostatic plant sprayer equipped with an atomizing spray nozzle. The plants were dried in the sprayer fume hood and then removed from the sprayer. Each pot was placed into perforated plastic bags with a zip closure. Ten to 11 armyworm larvae were placed into the bag and the bags zipped closed. Test plants were maintained in a growth room at about 25° C. and about 20-40% relative humidity for 4 days, avoiding direct exposure to fluorescent light (14:10 light:dark photo-period) to prevent trapping of heat inside the bags. Mortality and reduced feeding were assessed 4 days after treatment, compared to untreated control plants.

Bemisia argentifolii = experiment: B.12 Silverleaf Whitefly (adults), cotton plant spray test; settings: 72 h, 3 days after treatment, read-out: mortality in comparison with untreated controls
Protocol: The active compounds were formulated by a Tecan liquid handler in 100% cyclohexanone as a 10,000-ppm solution supplied in tubes. The 10,000-ppm solution was serially diluted in 100% cyclohexanone to make interim solutions. These served as stock solutions for which final dilutions were made by the Tecan in 50% acetone:50% water (v/v) into 5 or 10 ml glass vials. A nonionic surfactant (Kinetic®) was included in the solution at a volume of 0.01% (v/v). The vials were then inserted into an automated electrostatic sprayer equipped with an atomizing nozzle for application to plants/insects. Cotton plants at the cotyledon stage (one plant per pot) were sprayed by an automated electrostatic plant sprayer equipped with an atomizing spray nozzle. The plants were dried in the sprayer fume hood and then removed from the sprayer. Each pot was placed into a plastic cup and about 10 to 12 whitefly adults (approximately 3-5 days old) were introduced. The insects were collected using an aspirator and a nontoxic Tygon® tubing connected to a barrier pipette tip. The tip, containing the collected insects, was then gently inserted into the soil containing the treated plant, allowing insects to crawl out of the tip to reach the foliage for feeding. Cups were covered with a reusable screened lid. Test plants were maintained in a growth room at about 25° C. and about 20-40% relative humidity for 3 days, avoiding direct exposure to fluorescent light (14:10 light:dark photoperiod) to prevent trapping of heat inside the cup. Mortality was assessed 3 days after treatment, compared to untreated control plants.

Myzus persicae = experiment: B.3 Green Peach Aphid (mixed life stages), systemic artificial diet test; settings: 72 h, treated aphid diet, 3 days, read-out: mortality in comparison with untreated controls
Text: For evaluating control of Green Peach Aphid through systemic means the test unit consisted of 96-well-microtiter plates containing liquid artificial diet under an artificial membrane. The compounds were formulated using a solution containing 75% v/v water and 25% v/v DMSO. Different concentrations of formulated compounds were pipetted into the aphid diet, using a custom-built pipette, at two replications. After application, 5-8 adult aphids were placed on the artificial membrane inside the microtiter plate wells. The aphids were then allowed to suck on the treated aphid diet and incubated at about 23±1° C. and about 50±5% relative humidity for 3 days. Aphid mortality and fecundity was then visually assessed.

Heliothis virescens = experiment: B.4 Tobacco Budworm, microtiter plate diet test; settings: 120 h, egg and larval mortality, 5 days, read-out: mortality in comparison with untreated controls
Protocol: For evaluating control of Tobacco Budworm, the test unit consisted of 96-well-microtiter plates containing an insect diet and 15-25 H. virescens eggs. The compounds were formulated using a solution containing 75% v/v water and 25% v/v DMSO. Different concentrations of formulated compounds were sprayed onto the insect diet at 10 μl, using a custom-built micro atomizer, at two replications. After application, microtiter plates were incubated at about 28±1° C. and about 80±5% relative humidity for 5 days. Egg and larval mortality was then visually assessed.

Aedes aegypti = experiment: whole plant or invertebrate; settings: 48 h, larval mortality, 2 days, read-out: mortality in comparison with untreated controls
Protocol: For evaluating control of Yellow Fever Mosquito, the test unit consisted of 96-well-microtiter plates containing 200 μl of tap water per well and 5-15 freshly hatched A. aegypti larvae. The active compounds were formulated using a solution containing 75% (v/v) water and 25% (v/v) DMSO. Different concentrations of formulated compounds or mixtures were sprayed onto the insect diet at 2.5 μl, using a custom-built micro atomizer, at two replications.
After application, microtiter plates were incubated at 28±1° C., 80±5% RH for 2 days. Larval mortality was then visually assessed.

O=C(Nc1ccc(F)c(NC(=O)C(F)F)c1F)c1cc(NC2=NOC(c3cc(Cl)cc(Cl)c3)(C(F)(F)F)C2)ccc1Cl (stereo not drawn) [I-6, 2-chloro-5-[[5-(3,5-dichlorophenyl)-5-(trifluoromethyl)-4H-isoxazol-3-yl]amino]-N-[3-[(2,2-difluoroacetyl)amino]-2,4-difluoro-phenyl]benzamide]
≥ 75%: mortality at 300 ppm (Plutella xylostella) | mortality at 300 ppm (Dichromothrips corbetti)

N#CC1(NC(=O)c2c(F)ccc(NC3=NOC(c4cc(Cl)cc(Cl)c4)(C(F)(F)F)C3)c2F)CC1 (stereo not drawn) [I-30, N-(1-cyanocyclopropyl)-3-[[5-(3,5-dichlorophenyl)-5-(trifluoromethyl)-4H-isoxazol-3-yl]amino]-2,6-difluoro-benzamide]
≥ 75%: mortality at 2500 ppm (Anthonomus grandis) | mortality at 300 ppm (Plutella xylostella) | mortality at 300 ppm (Dichromothrips corbetti) | mortality at 300 ppm (Spodoptera eridania)

O=C(NC1CN(S(=O)(=O)C(F)F)C1)c1cc(NC2=NOC(c3cc(Cl)c(F)c(Cl)c3)(C(F)(F)F)C2)ccc1Cl (stereo not drawn) [I-41, 2-chloro-5-[[5-(3,5-dichloro-4-fluoro-phenyl)-5-(trifluoromethyl)-4H-isoxazol-3-yl]amino]-N-[1-(difluoromethylsulfonyl)azetidin-3-yl]benzamide]
≥ 75%: mortality at 300 ppm (Plutella xylostella) | mortality at 300 ppm (Dichromothrips corbetti) | mortality at 300 ppm (Spodoptera eridania)

O=C(Nc1ccc(F)cc1F)c1cccc(NC2=NOC(c3cc(Cl)cc(Cl)c3)(C(F)(F)F)C2)c1F (stereo not drawn) [I-48, 3-[[5-(3,5-dichlorophenyl)-5-(trifluoromethyl)-4H-isoxazol-3-yl]amino]-N-(2,4-difluoro-phenyl)-2-fluoro-benzamide]
≥ 75%: mortality at 300 ppm (Plutella xylostella) | mortality at 300 ppm (Dichromothrips corbetti) | mortality at 300 ppm (Spodoptera eridania)

CC(C)(C#N)NC(=O)c1cc(NC2=NOC(c3cc(Cl)c(F)c(Cl)c3)(C(F)(F)F)C2)ccc1Cl (stereo not drawn) [I-58, 2-chloro-N-(1-cyano-1-methyl-ethyl)-5-[[5-(3,5-dichloro-4-fluoro-phenyl)-5-(trifluoromethyl)-4H-isoxazol-3-yl]amino]benzamide]
≥ 75%: mortality at 300 ppm (Plutella xylostella) | mortality at 300 ppm (Dichromothrips corbetti) | mortality at 300 ppm (Spodoptera eridania)

O=C(Nc1cnccc1F)c1cc(NC2=NOC(c3cc(Cl)c(F)c(Cl)c3)(C(F)(F)F)C2)ccc1Cl (stereo not drawn) [I-62, 2-chloro-5-[[5-(3,5-dichloro-4-fluoro-phenyl)-5-(trifluoromethyl)-4H-isoxazol-3-yl]amino]-N-(4-fluoro-3-pyridyl)benzamide]
≥ 75%: mortality at 300 ppm (Plutella xylostella) | mortality at 300 ppm (Dichromothrips corbetti)

CCOC(=O)N(C1=NOC(c2cc(Cl)cc(Cl)c2)(C(F)(F)F)C1)c1ccc(Cl)c(C(=O)N(C(=O)OCC)C2(C#N)CC2)c1 (stereo not drawn) [I-100, ethyl N-[4-chloro-3-[(1-cyanocyclopropyl)-ethoxycarbonyl-carbamoyl]-phenyl]-N-[5-(3,5-dichlorophenyl)-5-(trifluoromethyl)-4H-isoxazol-3-yl]carbamate]
≥ 75%: mortality at 300 ppm (Plutella xylostella) | mortality at 300 ppm (Dichromothrips corbetti) | mortality at 300 ppm (Spodoptera eridania) | mortality at 300 ppm (Bemisia argentifolii)

O=C(N[C@@H]1CON(CC(F)(F)F)C1=O)c1cc(NC2=NOC(c3cc(Cl)c(F)c(Cl)c3)(C(F)(F)F)C2)ccc1Cl (stereo partly drawn) [I-114, 2-chloro-5-[[5-(3,5-dichloro-4-fluoro-phenyl)-5-(trifluoromethyl)-4H-isoxazol-3-yl]amino]-N-[(4R)-3-oxo-2-(2,2,2-trifluoroethyl)isoxazolidin-4-yl]benzamide]
≥ 75%: mortality at 300 ppm (Plutella xylostella) | mortality at 300 ppm (Dichromothrips corbetti) | mortality at 300 ppm (Spodoptera eridania) | mortality at 300 ppm (Bemisia argentifolii)

CN(C1=NOC(c2cc(Cl)cc(Cl)c2)(C(F)(F)F)C1)c1ccc(Cl)c(C(=O)NC2(c3cnn(C)c3)CC2)c1 (stereo not drawn) [I-125, 2-chloro-5-[[5-(3,5-dichlorophenyl)-5-(trifluoromethyl)-4H-isoxazol-3-yl]-methyl-amino]-N-[1-(1-methylpyrazol-4-yl)cyclopropyl]benzamide]
≥ 75%: mortality at 2500 ppm (Anthonomus grandis) | mortality at 2500 ppm (Myzus persicae) | mortality at 2500 ppm (Heliothis virescens) | mortality at 300 ppm (Plutella xylostella) | mortality at 300 ppm (Dichromothrips corbetti)

O=C(NC1(c2ccnnc2)CC1)c1cc(NC2=NOC(c3cc(Cl)cc(Cl)c3)(C(F)(F)F)C2)ccc1Cl (stereo not drawn) [I-162, 2-chloro-5-[[5-(3,5-dichlorophenyl)-5-(trifluoromethyl)-4H-isoxazol-3-yl]amino]-N-(1-pyridazin-4-ylcyclopropyl)benzamide]
≥ 75%: mortality at 2500 ppm (Anthonomus grandis) | mortality at 2500 ppm (Aedes aegypti) | mortality at 300 ppm (Plutella xylostella) | mortality at 300 ppm (Spodoptera eridania) | mortality at 300 ppm (Bemisia argentifolii)

N#CC1(NC(=O)c2cc(S(=O)(=O)C3=NOC(c4cc(Cl)cc(Cl)c4)(C(F)(F)F)C3)ccc2Cl)CC1 (stereo not drawn) [II-3, 2-chloro-N-(1-cyanocyclopropyl)-5-[[5-(3,5-dichlorophenyl)-5-(trifluoromethyl)-4H-isoxazol-3-yl]sulfonyl]benzamide]
≥ 75%: mortality at 300 ppm (Plutella xylostella)
